# Experimental data as given in article PMC6022228, “Introducing novel potent anticancer agents of 1H-benzo[f]chromene scaffolds, targeting c-Src kinase enzyme with MDA-MB-231 cell line anti-invasion effect” (Journal of Enzyme Inhibition and Medicinal Chemistry, 2018).
# Legend:
# MCF-7 = assay: MTT viability assay, MCF-7 (breast cancer); assay type: cell-based; details: Homo sapiens, MCF7, 24 h incubation, mean ± standard error
# Description: (§1) Compounds 4a–h and 6a–h were initially evaluated for in vitro antitumour activity against three different human cell lines: MCF-7, HCT-116, and HepG-2, and only the representative active cytotoxic compounds were further evaluated against the normal HFL-1 cell line. The in vitro cytotoxicity evaluation was performed at the Regional Center for Mycology & Biotechnology (RCMP), Al-Azhar University under different concentrations (50, 25, 12.5, 6.25, 3.125, 1.56, and 0 µg/mL); Vinblastine and Doxorubicin are used as reference cytotoxic compounds. The measurements of cell growth and the in vitro cytotoxicity evaluation were determined using viability assay as described in literature[31–33] and the result was cited in Table 1 and Figure 2.
# (§2) The in vitro cytotoxic evaluation of the prepared compounds 4a–h and 6a–h was performed against MCF-7 (breast cancer), HCT-116 (human colon cancer), HepG-2 (liver cancer), and HFL-1(normal fibroblast lung) using the 3-(4,5-dimethylthiazol-2-yl)-2,5-diphenyl tetrazolium bromide (MTT) colorimetric assay as described in literature. […] The results were expressed as growth inhibitory concentration (IC50) values, which represent the compounds’ concentrations required to produce a 50% inhibition of the cell growth after 24 h of incubation, compared to the untreated controls as shown in Table 1 and Figure 2.
# HCT-116 = assay: MTT viability assay, HCT-116 (human colon cancer); assay type: cell-based; details: 24 h incubation, mean ± standard error
# Description: as §1, §2
# HepG-2 = assay: MTT viability assay, HepG-2 (liver cancer); assay type: cell-based; details: Homo sapiens, HepG2, 24 h incubation, mean ± standard error
# Description: as §1, §2
# HFL-1 = assay: MTT viability assay, HFL-1 (normal fibroblast lung); assay type: cell-based; details: Homo sapiens, HFL1, 24 h incubation, normal cell line, mean ± standard error
# Description: as §1, §2
# MDA-MB-231 cell line = assay: Cell invasion assay; assay type: cell-based; details: Homo sapiens, Table 2, read-out: IC50 anti-invasion, MDA-MB-231 breast cancer cells
# Description: The cell invasion assay was performed by Reaction Biology Corporation, One Great Valley Parkway, PA. All compounds were dissolved in DMSO and tested for their ability to cell invasion assay. Compounds 4c, 6e, and reference compound bosutinib were purchased from Sellechem (Houston, TX). Corning Bio Coat Fluoro Blok Insert System-96-well plates were purchased from Corning (Corning Incorporated, Tewksbury, MA). Calcein AM labelling reagent was purchased from Molecular Probes (Eugene, Oregon). MDA-MB-231 cell line was purchased from American Type Culture Collection (Manassas, VA). MDA-MB-231 cells were grown in DMEM medium supplemented with 10% foetal bovine serum (FBS), 100 µg/mL of penicillin, and 100 µg/mL of streptomycin. Cultures were maintained at 37 °C in a humidified atmosphere of 5% CO2 and 95% air-following incubation; medium was carefully removed from the apical chambers. The insert system was transferred into a second 96-square well plate containing 200 µl/well of 4 µg/mL Calcein AM in HBSS. The plates were incubated for 1 h at 37 °C, 5% CO2. Fluorescence of invaded cells was read at wavelengths of 492/535 nm (Ex/Em) from bottom reading using Envision 2104 Multilabel Reader (PerkinElmer, Santa Clara, CA). The IC50 curves were plotted and IC50 values were calculated using the Graph Pad Prism 4 program for windows (Graph Pad software, San Diego California. www.graphpad.com) based on a sigmoidal dose-response equation.
# Tumour invasion is a common feature of triple-negative breast cancers. […] The invasion process has become an important prerequisite for cancer progression and metastasis. […] A bosutinib drug was used as a control ant-invasive agent. […] The obtained data might confirm that the cytotoxicity of novel molecules led to the death of the cancer cells and stopped the metastatic processes.
# [1] = system: caspases 3/7 in MDA-MB-231 cells; assay: Caspase-Glo 3/7 activity assay; assay type: cell-based; details: Homo sapiens, 24 h treatment, 10 concentrations, read-out: Caspase-Glo 3/7 activity assay, MDA-MB-231 cell line, IC50
# Description: The Caspase-Glo 3/7 activity assay was performed by Reaction Biology Corporation, One Great Valley Parkway, PA. Examined compounds 4c, 4e, 4h, 6d, and 6e were dissolved in DMSO as 20 mM stock and tested for their ability to Caspase-Glo 3/7 activity assay. […] Caspase-Glo 3/7 activity assay reagent was purchased from Promega (Madison, WI). MDA-MB-231 cell line was provided by ATCC. MDA-MB-231 cell line culture conditions: DMEM with 10% FBS. 100 µg/mL penicillin and 100 µg/mL streptomycin were added to the culture media. Cultures were maintained at 37 °C in a humidified atmosphere of 5% CO2 and 95% air.
# Caspases are […] that promote apoptosis. Caspases are vital biochemical features of apoptotic signalling. […] To determine whether the cell growth inhibition in response to the benzochromene derivatives was mediated by apoptosis and was caspase dependent, MDA-MB-231 cells were treated with 10 different concentrations of the target compounds for 24 h.
# c-Src kinase = target: T1, c-Src kinase (Homo sapiens, UniProt P12931); assay: c-Src kinase assay (HTScan Src Kinase Assay Kit); assay type: biochemical; details: GST-Src kinase, triplicate; read-out: Inhibition of c-Src kinase activity, IC50
# T1 construct: purchased Cell Signaling Technology (Danvers, MA) 7776
# T1 sequence (P12931 whole entry): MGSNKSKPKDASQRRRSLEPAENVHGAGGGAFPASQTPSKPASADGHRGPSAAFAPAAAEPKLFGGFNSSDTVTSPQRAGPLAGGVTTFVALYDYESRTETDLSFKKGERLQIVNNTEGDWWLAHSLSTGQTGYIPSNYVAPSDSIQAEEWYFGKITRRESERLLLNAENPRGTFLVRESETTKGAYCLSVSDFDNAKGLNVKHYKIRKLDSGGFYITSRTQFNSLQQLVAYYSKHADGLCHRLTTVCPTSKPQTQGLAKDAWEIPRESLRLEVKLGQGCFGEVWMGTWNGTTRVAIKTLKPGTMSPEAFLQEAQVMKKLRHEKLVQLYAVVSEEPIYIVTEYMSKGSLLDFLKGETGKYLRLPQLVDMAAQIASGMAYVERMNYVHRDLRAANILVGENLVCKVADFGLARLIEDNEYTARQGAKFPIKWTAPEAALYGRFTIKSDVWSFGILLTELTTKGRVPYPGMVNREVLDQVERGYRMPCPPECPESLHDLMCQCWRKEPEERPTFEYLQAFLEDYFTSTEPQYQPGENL
# Description: Streptavidin-coated plates were purchased from Pierce (Rockford, IL). […] The reaction mixture was incubated for 30 min at room temperature. The kinase reaction was stopped with the addition of 50 µL of 50 mM EDTA (pH 8.0). […] At the end of the incubation, the wells were washed three times with 200 µL of 0.05% Tween-20 in PBS buffer (PBS/T). After that to each well was added 100 µL of phosphotyrosine antibody (P-Tyr-100) (1:1000 dilution in PBS/T with 1% BSA) and the wells were incubated for another 60 min. After washing three times with 0.05% Tween-20 in PBS/T, the wells were incubated with 100 µL secondary anti-mouse IgG antibody, which was HRP-conjugated (1:500 dilution in PBS/T with 1% BSA) for next 30 min at room temperature. The wells were washed five times with 0.05% Tween-20 in PBS and then were incubated with 100 µL of 3,3′,5,5′-tetramethylbenzidine dihydrochloride substrate for 5 min. […] IC50 values of the compounds were calculated using ORIGIN 6.0 (Origin Lab Corporation, Northampton, MA) software. […] All the experiments were carried out in triplicate.
structure (smiles),measurement,setting,value
"COc1ccc2c3c(ccc2c1)OC(N)=C(C#N)C3c1ccc(C)cc1 (centres unmarked) [Compound 6e, 3-Amino-8-methoxy-1-(4-methylphenyl)-1H-benzo[f]chromene-2-carbonitrile]",IC50,MCF-7,0.3 ± 0.05 µg/mL
same,IC50,HCT-116,0.8 ± 0.06 µg/mL
same,IC50,HepG-2,0.6 ± 0.21 µg/mL
same,IC50,HFL-1,29.7 ± 0.17 µg/mL
same,IC50,MDA-MB-231 cell line,16.5 µM
same,IC50,[1],38.9 µM
same,IC50,c-Src kinase,0.009 µM
same,melting point,,232 to 233 °C
